≈ marks a conversion by molar mass, not a printed value.
How the values were obtained:
Apis mellifera = settings: acute, duration: 48 hours, mortality
Bibionidae = settings: chronic/long-term; duration: 28 days
Canidae = settings: oral, Dog Other, organ weight
Colinus virginianus = settings: acute, oral, mortality
Daphnia magna = settings: chronic/long-term; duration: 21 days; reproduction
Oncorhynchus mykiss = settings: acute; duration: 96 hours; mortality
Pimephales promelas = settings: chronic/long-term; duration: 40 days; time to hatch
Rattus norvegicus = settings: acute; oral; mortality
Tagia sp. = settings: acute; duration: 14 days; mortality
Aphidius rhopalosiphi = experiment: LR50; higher = less toxic; settings: chronic/long-term; duration: 7 days; mortality
Typhlodromus pyri = experiment: LR50; higher = less toxic; settings: chronic/long-term; duration: 7 days; mortality

Q: `COc1cc(OC)n2nc(NS(=O)(=O)c3c(C(F)(F)F)ccnc3OC)nc2n1` [Pyroxsulam] was tested. Which LD50 (Anas platyrhynchos; acute, oral, unspecified, mortality) did it give?
A: > 2000 mg/kg-day

Q: What about the NOAEL (Anas platyrhynchos; reproductive) of the same compound?
A: 46.3 mg/kg-day

Q: What about the LD50 (Apis mellifera; dermal) of the same compound?
A: > 100 µg/piece

Q: And the LD50 (Apis mellifera; oral, unspecified)?
A: > 107 µg/piece

Q: And the NOEC (Bibionidae)?
A: 100 mg/L

Q: And the NOAEL (Canidae; chronic, duration: 1 years)?
A: 89 mg/kg-day

Q: What about the NOAEL (Canidae; subchronic, duration: 90 days) of the same compound?
A: 100 mg/kg-day

Q: What about the LC50 (Colinus virginianus; diet) of the same compound?
A: > 988 mg/kg-day

Q: What about the LD50 (Colinus virginianus) of the same compound?
A: > 2000 mg/kg-day

Q: And the NOEC (Daphnia magna)?
A: 10.4 mg/L

Q: And the LC50 (Oncorhynchus mykiss)?
A: 5.9 µg/mL (≈ 13.6 µM)

Q: And the NOEC (Pimephales promelas)?
A: 10.1 mg/L

Q: What about the LD50 (Rattus norvegicus) of the same compound?
A: > 2000 mg/kg-day

Q: What about the LC50 (Tagia sp.) of the same compound?
A: > 10000 mg/kg

Q: What about the LR50 (Aphidius rhopalosiphi) of the same compound?
A: > 37.5 g/ha

Q: What about the LR50 (Typhlodromus pyri) of the same compound?
A: > 37.5 g/ha

Reference: EPA's ToxValDB 9.5 (doi:10.2903/j.efsa.2013.3182)
